# According to patent publication US20200046703A1, “COMPOSITIONS AND METHODS FOR TREATMENT OF THE SIDE-EFFECTS ASSOCIATED WITH ADMINISTRATION OF THERAPEUTIC AGENTS” (ASYMMETRIC THERAPEUTICS, LLC, priority 2018, published 2020):
# Key:
# Assay type in all cases: cell-based, human
# proliferating HGEP cells = test: Proliferating HGEP cell viability with/without 5-FU; details: with 5-FU 10 μM, 120 hours
# Description: (§1) In one set of experiments, the results of which are shown in Table 1, proliferating HGEP cells, commonly used to assess oral mucosal toxicity, were exposed to the clinically-relevant dose of 10 μM of 5-FU and different concentrations of oxypurinol, either alone or with different concentrations of adenine or uracil, using standard tissue culture methods and incubated at 37° C. Oxypurinol concentrations of 0.03 mM, 0.1 mM, and 0.3 mM were tested. Adenine and uracil concentrations of 0.1 mM and 0.3 mM were tested. The relative viability of the cells was determined after 120 hours.
# confluent HPEK cells = test: Confluent HPEK cell viability with/without 5-FU; details: 0.3 mM, 120 hours
# Description: Oxypurinol and allopurinol concentrations of 0.3 mM, 1.0 mM, and 3.0 mM, which are ten times higher than those used in the first set of experiments, were tested. An adenine concentration of 0.3 mM, which was the higher concentration used in the first set of experiments, was tested. The relative viability of the cells was determined after 120 hours.
# proliferating HPEK cells = test: Proliferating HPEK cell viability with/without 5-FU; details: with 5-FU 10 μM, 120 hours
# Description: as §1, with “In another” for “In one”, “Table 2,” for “Table 1,”, “proliferating HPEK” for “proliferating HGEP”, “assess skin tissue” for “assess oral mucosal”
Compound,relative cell viability (AVG) (proliferating HGEP cells; 0.1 mM),relative cell viability (AVG) (proliferating HGEP cells; 0.3 mM),relative cell viability (AVG) (confluent HPEK cells; no 5-FU),relative cell viability (AVG) (confluent HPEK cells; with 5-FU 10 μM),relative cell viability (AVG) (proliferating HPEK cells; 0.1 mM),relative cell viability (AVG) (proliferating HPEK cells; 0.3 mM)
"Nc1ncnc2nc[nH]c12 [Adenine, adenine, reference compound]",0.7549,0.6389,1.3784,0.7456,0.6214,0.5985
"O=c1cc[nH]c(=O)[nH]1 [Uracil, uracil, reference compound]",0.6060,0.5182,1.3781,0.6482,0.6479,0.6350
